PMC12951430, “Modular Vinyl Phosphonamidates for Cysteine-Directed Protein Targeting” (Journal of the American Chemical Society, 2026)
Entries after “also recorded” stand apart in the source; their conditions may differ. Like-named read-outs stand apart in the source and are kept apart here.

Legend:
[1] = target: EGFR in A431 cells (Homo sapiens, UniProt P00533); test: Gel-based ABPP of EGFR probes in A431 cells; conditions: for target selectivity in time-course labeling: 1 µM, up to 6 h; for in-cell EGFR labeling, competition with excess Afatinib: pretreatment Afatinib 5 μM
Chain of EGFR in A431 cells (P00533 25-1210): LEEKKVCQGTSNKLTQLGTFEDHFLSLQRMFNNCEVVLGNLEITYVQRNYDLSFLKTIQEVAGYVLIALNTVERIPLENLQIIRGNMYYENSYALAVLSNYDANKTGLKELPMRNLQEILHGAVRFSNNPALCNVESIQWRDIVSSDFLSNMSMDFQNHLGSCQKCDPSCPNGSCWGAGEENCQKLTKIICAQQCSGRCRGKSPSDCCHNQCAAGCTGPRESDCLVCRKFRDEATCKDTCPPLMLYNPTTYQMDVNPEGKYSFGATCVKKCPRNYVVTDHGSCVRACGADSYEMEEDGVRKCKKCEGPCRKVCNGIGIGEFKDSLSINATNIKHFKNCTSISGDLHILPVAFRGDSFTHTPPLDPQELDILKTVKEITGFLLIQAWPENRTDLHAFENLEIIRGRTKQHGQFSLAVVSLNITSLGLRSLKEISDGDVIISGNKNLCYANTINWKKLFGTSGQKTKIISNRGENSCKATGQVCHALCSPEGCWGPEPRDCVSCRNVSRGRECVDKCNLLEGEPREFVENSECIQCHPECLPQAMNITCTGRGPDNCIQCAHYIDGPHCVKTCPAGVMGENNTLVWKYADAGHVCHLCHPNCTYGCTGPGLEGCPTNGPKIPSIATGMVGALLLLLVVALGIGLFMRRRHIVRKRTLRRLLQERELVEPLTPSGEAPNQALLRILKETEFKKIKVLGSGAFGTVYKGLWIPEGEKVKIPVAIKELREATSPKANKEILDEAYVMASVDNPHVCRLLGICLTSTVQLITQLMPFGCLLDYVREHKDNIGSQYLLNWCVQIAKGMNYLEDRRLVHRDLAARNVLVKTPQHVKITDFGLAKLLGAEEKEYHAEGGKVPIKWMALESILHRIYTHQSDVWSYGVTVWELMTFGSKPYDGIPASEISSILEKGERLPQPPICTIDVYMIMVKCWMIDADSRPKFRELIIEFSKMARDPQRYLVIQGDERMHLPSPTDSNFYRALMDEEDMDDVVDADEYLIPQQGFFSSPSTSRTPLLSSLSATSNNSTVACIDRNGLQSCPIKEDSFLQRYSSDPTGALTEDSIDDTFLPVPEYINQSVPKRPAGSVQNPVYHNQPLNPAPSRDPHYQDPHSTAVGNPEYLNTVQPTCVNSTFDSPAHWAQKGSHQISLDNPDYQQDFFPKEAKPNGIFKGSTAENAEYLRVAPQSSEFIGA
Protocol: With this probe in hand, we treated wild-type EGFR overexpressing A431 cells at a probe concentration of 1 μM for 1 h at 37 °C, followed by lysis and fluorescent labeling via CuAAC.
For EGFR -probes, A431 -cells were seeded at 60’000 cells/well in a 6-well plate (Greiner Bio-One) and incubated until 80 -100% confluencey. Before treatment , cells were washed twice with PBS. Cells were incubated with the indicated compound concentration (final conc. of 1% DMSO in RPMI -FCS ) at 37 °C.
After the incubati on, cells were washed twice with ice cold PBS and lysed in ice -cold RIPA -buffer containing cOmplete TM protease inhibitor (Roche), 50 mM iodo acetamide (I1149, Sigma Aldrich) and
Following a 10 min incubation at 37 °C lysat es were transferred
TBTA, 0.5 mM TCEP, 0.05 mM fluorescein-N3) in a shaker (800 rpm, 37 °C) for 45 minutes. Afterwards, proteins were precipitated with the 4-fold volume of acetonitrile and cetrifuged (14’00 rcf, 5 min). The solvent was removed and precipitates were resuspended in 80% EtOH followed by another round of centrifugation (10’000 rcf, 5 min). The pellets were aspirated and left to dry on air for 5-10 minutes.
Afterwards, the precipitate was redissolved in 40 µl 8 M urea (100 mM Tris, pH 8), 8 µl Laemmli buffer were added and the samples were denatured at 95 °C for 5 minutes.
and bands were quantified in ImageLab 6.1.

[2] = test system: RAMOS cells; test: Off-target reactivity in EGFR-negative RAMOS cells (gel-based); conditions: up to 10 μM, 1 h, 1 μM time course
Protocol: probe 5 in EGFR-negative RAMOS-cells. Cells (3x10^6/ml) were treated with the indicated probe-
concentration for 1 h @ 37 °C in RPMI –FCS. After the treatment, cells were processed according to the
Data is representative of three independent experiments. a) Fluorescent gel
of RAMOS-cells treated with the indicated probe-concentration. b) Relative fluorescent intensity of
three independent experiments c) Fluorescent gel of RAMOS-cells treated 1 µM probe 5 or 7 for the
indicated time. b) Relative fluorescent intensity of three independent experiments (quantitative results
were normalized to the most intense band in each replicate)
For BTK-probes, RAMOS-cells were seeded at 3x10^6 cells/ml (RMPI w/o FCS) and incubated with the indicated compound concentration (final conc. of 1% DM SO) at 37 °C. After the incubation, cells were harvested by centrifugation, washed twice with ice cold PBS and lysed in ice -cold RIPA-buffer containing cOmpleteTM protease inhibitor (Roche), 50 mM iodo acetamide (I1149, Sigma Aldrich) and
Following a 10 min incubation at 37 °C lysates were f urther processed as described above.

[3] = test system: A431 cells; test: Proteomic pulldown with EGFR probes in A431 cells (LFQ); type: cell-based, human; conditions: for # Labelled Proteins (total number of significantly enriched proteins) / off-targets enriched: 10 μM probe
Protocol: To gain a more detailed understanding of which proteins are labeled by the corresponding probe, we performed a proteomic pulldown experiment. […] . […] Additionally, we also wanted to investigate proteomic engagement under more extreme conditions, using a 10 μM probe concentration. […] Even though both probes enriched a large portion of proteins, EGFR was still among the most prominent hits for the phosphonamidate probe and only to a lesser extent for 5 (Figure S11). Overall, we observed a certain degree of complementarity between the off-targets obtained from the corresponding probes (Figures j and S12). […] Most prominently, selenoprotein SELENOT and solute carrier protein SLC25A32 were only enriched by phosphonamidate probe 7. On the other hand, several proteins like the cysteine proteases ATG4B, CTSB, and BOLA2 were exclusively enriched by DMAC probe 5.
Figure S 10: Volcano blots obtained from label free quantification of the proteins from streptavidin pulldowns performed with 1 µM probe 5 or 7 (in comparison to the DMSO treated sample). Proteins were identified and quantified and blotted as described in 4.8: Variance stabilization and Perseus-type […]
At the tested concentration, both probes solely enrich
EGFR. Data was obtained from 4 independent replicates.
Figure S 11: Volcano blots obtained from label free quantification of the proteins from streptavidin pulldowns performed with 10 µM probe 5 or 7 (in comparison to the DMSO treated sample). Proteins […]
imputation were enabled. Proteins surpassing a log 2 fold-change of 2.5 and a -log10 adjusted p-value […]
proteins can be found in Supplementary Table 1. Data was obtained from 4 independent replicates. […]
4.8 In-cell protein labeling and s ample preparation for proteomic pull-down Cells were cultured, treated and lysed as described in 4.4. Lysates (approx. 200 μg of protein each) […]
Afterwards, the samples we re processed according to a procedure published by Becker et al. 10: A total of 50 μl of mixed hydrophobic and hydrophilic carboxylate -coated magnetic beads (1:1, prewashed with PBS; Seramag™, Cytavia) was added to the click reaction mixture followed by 600 μl of absolute ethanol to precipitate the proteins. Beads were washed thrice with of 80% ethanol and proteins were eluted by two sequential washes of 0.2% SDS in PBS. The eluted proteins were directly transferred onto 30 μl of streptavidin-coated magnetic beads (prewashed with 0.2% SDS in PBS; New England Biolabs) and incubated on a shaker for 1 h at r.t. Streptavidin-beads were washed thrice with 8 M urea, PBS pH 7.4 and MilliQ water. Washed beads were resuspended in 100 mM ABC buffer, followed by […]
trypsinized overnight at 37 °C (1.5 µg/sample, Promega). The supernatant was removed, acidified to 1% TFA, centrifuged at 10‘000 rcf for 5 minutes and stored at -20 °C until measurement. Before MS/MS analysis a quality-control run was conducted on a Waters XEVO G2-XS QTof instrument to ensure […]
Samples were diluted based on the QC-runs to ensure equal loading. LC-MS/MS analysis was performed using an UltiMate 3000 RSLC nano LC system coupled on -line to an Orbitrap Fusion mass spectrometer (Thermo Fisher Scientific). For sample loading a PepMap C -18 trap-column (Thermo Fischer Scientific) of 0.075 mm ID x 50 mm length, 3 μm particle size and 100 Å pore size was used. The loading mobile phase A contained 1% acetonitrile and 0.05% TFA acid in water, and mobile phase B 0.05% TFA acid in acetonitrile. Reversed-phase separation was performed using a 50 cm analytical column (in-house packed with Poroshell 120 EC-C18, 2.7μm, Agilent Technologies) with mobile phase A contained 0.1% formic acid in water, and mobile phase B 0.1% formic acid in acetonitrile using a 93 […]
ions with charge states 2-4 were isolated with a mass selecting quadrupole (isolation window 1.6 m/z)

Compound | target selectivity in time-course labeling [1] | off-target labeling in EGFR-negative cells [2] | significantly enriched proteins ([3]; A431 cells, 1 μM probe, 2 h 37 °C, log2-fold change >2.5, adjusted p <0.01) | # Labelled Proteins (total number of significantly enriched proteins) ([3]; A431 cells) | off-targets enriched ([3]; A431 cells) | in-cell EGFR labeling, competition with excess Afatinib ([1]; 1 h 37 °C) | lowest concentration with detectable labeling signal ([1]; 1 h 37 °C) [nM] | significantly enriched proteins [3]
C#CCOc1cc2ncnc(Nc3ccc(F)c(Cl)c3)c2cc1NC(=O)/C=C/CN(C)C [compound 5, reference compound] | significantly higher off-target labeling | significant fluorescent labeling of off-targets | solely enrich | 327 | 118 |  |  | 
C#CCCOP(=O)(C=C)Nc1cc2c(Nc3ccc(F)c(Cl)c3)ncnc2cc1O[C@H]1CCOC1 (stereo partly shown) [4c] |  |  |  |  |  | selective covalent engagement of EGFR |  | 
C#CCOc1cc2ncnc(Nc3ccc(F)c(Cl)c3)c2cc1NP(=O)(C=C)OCC (stereo not shown) [compound 7] | did not decrease | almost no labeling |  | 119 | 327 | EGFR-selective labeling | ≤ 5 | solely enrich; also recorded: EGFR is the only protein significantly enriched
